Assay results: ChEMBL document CHEMBL4507274 (2021)

Tests used:
[1] = test system: Epidermal growth factor receptor (Homo sapiens), P00533 [UNDEFINED MUTATION]; conditions: Compound concentration 100.0 nM
[2] = test system: Epidermal growth factor receptor (Homo sapiens), P00533 [UNDEFINED MUTATION]; conditions: Compound concentration 100.0 nM; remark: listed apart in the source
[3] = test system: Epidermal growth factor receptor (Homo sapiens), P00533 [T790M]; conditions: Compound concentration 100.0 nM
[4] = target: 5-hydroxytryptamine receptor 2A (Homo sapiens) (UniProt P28223); conditions: Compound concentration 10.0 uM
Sequence of 5-hydroxytryptamine receptor 2A (Homo sapiens) (P28223 whole entry): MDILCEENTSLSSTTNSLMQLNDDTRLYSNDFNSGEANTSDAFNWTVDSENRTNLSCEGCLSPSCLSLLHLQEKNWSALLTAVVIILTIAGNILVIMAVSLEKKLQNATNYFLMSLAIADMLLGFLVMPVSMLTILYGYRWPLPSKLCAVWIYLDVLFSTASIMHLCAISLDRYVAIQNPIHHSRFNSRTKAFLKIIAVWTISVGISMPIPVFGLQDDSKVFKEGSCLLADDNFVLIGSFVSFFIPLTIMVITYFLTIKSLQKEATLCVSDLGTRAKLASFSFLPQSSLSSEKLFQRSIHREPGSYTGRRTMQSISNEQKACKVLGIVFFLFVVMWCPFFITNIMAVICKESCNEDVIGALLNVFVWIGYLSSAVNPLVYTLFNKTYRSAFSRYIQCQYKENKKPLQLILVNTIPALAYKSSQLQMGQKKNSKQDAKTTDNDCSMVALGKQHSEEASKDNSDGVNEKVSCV

[5] = target: RAC-gamma serine/threonine-protein kinase (Homo sapiens) (UniProt Q9Y243); assay: PKBγgamma(h) Upstate kinase activity assay; conditions: Compound concentration 10.0 uM
Sequence of RAC-gamma serine/threonine-protein kinase (Homo sapiens) (Q9Y243 whole entry): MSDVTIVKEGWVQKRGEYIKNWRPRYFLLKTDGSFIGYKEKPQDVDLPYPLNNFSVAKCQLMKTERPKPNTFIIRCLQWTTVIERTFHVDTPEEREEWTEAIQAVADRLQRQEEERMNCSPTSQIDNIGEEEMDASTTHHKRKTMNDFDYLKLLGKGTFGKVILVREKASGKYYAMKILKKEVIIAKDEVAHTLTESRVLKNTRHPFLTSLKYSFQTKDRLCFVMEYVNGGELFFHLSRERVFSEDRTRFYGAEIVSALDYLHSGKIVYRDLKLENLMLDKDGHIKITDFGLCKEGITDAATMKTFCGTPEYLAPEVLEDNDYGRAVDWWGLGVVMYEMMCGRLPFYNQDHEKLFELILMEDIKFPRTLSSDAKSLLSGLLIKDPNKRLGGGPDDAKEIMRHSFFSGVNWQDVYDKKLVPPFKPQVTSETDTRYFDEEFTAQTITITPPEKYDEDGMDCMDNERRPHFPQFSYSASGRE

[6] = target: RAF proto-oncogene serine/threonine-protein kinase (Homo sapiens) (UniProt P04049); assay: c-RAF (h) Upstate kinase activity assay; conditions: Compound concentration 10.0 uM
Sequence of RAF proto-oncogene serine/threonine-protein kinase (Homo sapiens) (P04049 whole entry): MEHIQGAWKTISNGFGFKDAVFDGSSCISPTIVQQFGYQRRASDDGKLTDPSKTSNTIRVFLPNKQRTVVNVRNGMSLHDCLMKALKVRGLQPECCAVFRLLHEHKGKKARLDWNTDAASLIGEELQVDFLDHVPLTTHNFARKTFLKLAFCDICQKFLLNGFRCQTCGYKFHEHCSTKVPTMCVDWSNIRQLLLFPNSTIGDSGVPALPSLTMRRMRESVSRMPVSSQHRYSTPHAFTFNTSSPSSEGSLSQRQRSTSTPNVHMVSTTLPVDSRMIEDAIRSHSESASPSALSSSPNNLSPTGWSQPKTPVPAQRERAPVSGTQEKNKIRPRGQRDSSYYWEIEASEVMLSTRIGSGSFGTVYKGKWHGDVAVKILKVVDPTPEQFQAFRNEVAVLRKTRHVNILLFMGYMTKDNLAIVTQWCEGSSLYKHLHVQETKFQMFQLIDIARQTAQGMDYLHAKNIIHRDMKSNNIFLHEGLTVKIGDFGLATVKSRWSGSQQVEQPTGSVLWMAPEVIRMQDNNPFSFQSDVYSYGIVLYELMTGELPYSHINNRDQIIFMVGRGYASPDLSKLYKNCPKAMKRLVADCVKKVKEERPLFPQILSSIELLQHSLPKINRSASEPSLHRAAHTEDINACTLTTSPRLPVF

PC-3 = assay: Prostate PC-3 cell line MDS Pharma Services Proliferation Assay; assay type: functional, cell-based, Homo sapiens
[7] = target: Mitogen-activated protein kinase 1 (Mus musculus) (UniProt P63085); assay: MAPK2 (m) Upstate kinase activity assay; conditions: Compound concentration 10.0 uM
K562 = assay: Leukemia K562 cell line MDS Pharma Services Proliferation Assay; assay type: functional, cell-based, Homo sapiens
[8] = target: Calcium/calmodulin-dependent protein kinase type II subunit gamma (Rattus norvegicus) (UniProt P11730); assay: CaMKII (r) Upstate kinase activity assay; conditions: Compound concentration 10.0 uM
Sequence of Calcium/calmodulin-dependent protein kinase type II subunit gamma (Rattus norvegicus) (P11730 whole entry): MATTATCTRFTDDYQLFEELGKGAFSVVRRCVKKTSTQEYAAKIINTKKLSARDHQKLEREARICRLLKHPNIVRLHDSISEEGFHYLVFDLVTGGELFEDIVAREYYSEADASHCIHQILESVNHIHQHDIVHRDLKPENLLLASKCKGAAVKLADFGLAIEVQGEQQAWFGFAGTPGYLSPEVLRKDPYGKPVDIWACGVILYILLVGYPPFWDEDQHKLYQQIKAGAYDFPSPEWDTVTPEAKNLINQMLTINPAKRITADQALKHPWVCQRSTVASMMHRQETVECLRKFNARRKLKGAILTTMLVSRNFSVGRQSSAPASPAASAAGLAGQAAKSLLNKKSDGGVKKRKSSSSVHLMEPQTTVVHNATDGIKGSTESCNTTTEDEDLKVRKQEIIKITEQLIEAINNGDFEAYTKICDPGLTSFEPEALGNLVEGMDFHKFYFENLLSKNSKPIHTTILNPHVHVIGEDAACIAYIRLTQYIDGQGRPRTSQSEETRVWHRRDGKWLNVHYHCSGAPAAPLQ

[9] = target: Mitogen-activated protein kinase 1 (Homo sapiens) (UniProt P28482); assay: MAPK1 (h) Upstate kinase activity assay; conditions: Compound concentration 10.0 uM
Sequence of Mitogen-activated protein kinase 1 (Homo sapiens) (P28482 whole entry): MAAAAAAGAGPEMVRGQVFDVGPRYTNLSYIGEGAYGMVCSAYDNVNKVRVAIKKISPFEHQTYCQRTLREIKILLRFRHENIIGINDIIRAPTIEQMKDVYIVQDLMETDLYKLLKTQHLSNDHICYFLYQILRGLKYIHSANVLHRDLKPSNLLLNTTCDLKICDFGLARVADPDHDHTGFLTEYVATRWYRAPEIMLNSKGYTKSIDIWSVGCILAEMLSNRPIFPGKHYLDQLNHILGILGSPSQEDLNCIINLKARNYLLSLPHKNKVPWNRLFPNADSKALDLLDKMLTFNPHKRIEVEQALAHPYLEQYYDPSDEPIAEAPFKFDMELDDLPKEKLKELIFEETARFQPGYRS

[10] = target: Serine/threonine-protein kinase pim-1 (Homo sapiens) (UniProt P11309); assay: Pim-1 (h) Upstate kinase activity assay; conditions: Compound concentration 10.0 uM
[11] = target: T1, Mitogen-activated protein kinase 12 (Homo sapiens) (UniProt P53778); assay: SAPK3 (h) Upstate kinase activity assay; conditions: Compound concentration 10.0 uM
T1 sequence (whole entry): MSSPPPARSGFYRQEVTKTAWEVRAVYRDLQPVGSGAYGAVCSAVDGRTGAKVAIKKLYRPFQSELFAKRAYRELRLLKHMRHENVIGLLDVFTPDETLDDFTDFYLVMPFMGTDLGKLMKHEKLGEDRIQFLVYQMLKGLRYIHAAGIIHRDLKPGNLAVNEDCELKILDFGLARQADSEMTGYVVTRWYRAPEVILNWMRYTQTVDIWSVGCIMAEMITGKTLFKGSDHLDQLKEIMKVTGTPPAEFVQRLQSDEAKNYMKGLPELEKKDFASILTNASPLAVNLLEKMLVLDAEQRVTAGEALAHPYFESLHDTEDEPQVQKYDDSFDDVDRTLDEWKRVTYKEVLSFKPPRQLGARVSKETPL

[12] = target: RAC-beta serine/threonine-protein kinase (Homo sapiens) (UniProt P31751); assay: PKBbeta (h) Upstate kinase activity assay; conditions: Compound concentration 10.0 uM
Sequence of RAC-beta serine/threonine-protein kinase (Homo sapiens) (P31751 whole entry): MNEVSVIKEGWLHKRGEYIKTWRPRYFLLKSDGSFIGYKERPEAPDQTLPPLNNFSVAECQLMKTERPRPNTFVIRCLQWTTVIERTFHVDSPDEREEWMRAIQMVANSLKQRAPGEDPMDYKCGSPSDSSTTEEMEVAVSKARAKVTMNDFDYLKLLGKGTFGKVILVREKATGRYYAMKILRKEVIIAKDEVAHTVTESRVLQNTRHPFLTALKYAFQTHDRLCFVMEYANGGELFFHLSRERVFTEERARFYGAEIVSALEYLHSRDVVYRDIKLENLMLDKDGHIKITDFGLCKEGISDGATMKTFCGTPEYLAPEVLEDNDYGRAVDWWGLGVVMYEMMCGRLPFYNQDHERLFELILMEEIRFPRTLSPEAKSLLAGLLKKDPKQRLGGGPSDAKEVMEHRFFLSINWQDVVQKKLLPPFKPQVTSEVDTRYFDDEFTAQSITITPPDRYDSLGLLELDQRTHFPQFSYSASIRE

[13] = target: Insulin-like growth factor 1 receptor (Homo sapiens) (UniProt P08069); assay: IGF-1R (h) Upstate kinase activity assay; conditions: Compound concentration 10.0 uM
Sequence of Insulin-like growth factor 1 receptor (Homo sapiens) (P08069 31-736 limits assumed): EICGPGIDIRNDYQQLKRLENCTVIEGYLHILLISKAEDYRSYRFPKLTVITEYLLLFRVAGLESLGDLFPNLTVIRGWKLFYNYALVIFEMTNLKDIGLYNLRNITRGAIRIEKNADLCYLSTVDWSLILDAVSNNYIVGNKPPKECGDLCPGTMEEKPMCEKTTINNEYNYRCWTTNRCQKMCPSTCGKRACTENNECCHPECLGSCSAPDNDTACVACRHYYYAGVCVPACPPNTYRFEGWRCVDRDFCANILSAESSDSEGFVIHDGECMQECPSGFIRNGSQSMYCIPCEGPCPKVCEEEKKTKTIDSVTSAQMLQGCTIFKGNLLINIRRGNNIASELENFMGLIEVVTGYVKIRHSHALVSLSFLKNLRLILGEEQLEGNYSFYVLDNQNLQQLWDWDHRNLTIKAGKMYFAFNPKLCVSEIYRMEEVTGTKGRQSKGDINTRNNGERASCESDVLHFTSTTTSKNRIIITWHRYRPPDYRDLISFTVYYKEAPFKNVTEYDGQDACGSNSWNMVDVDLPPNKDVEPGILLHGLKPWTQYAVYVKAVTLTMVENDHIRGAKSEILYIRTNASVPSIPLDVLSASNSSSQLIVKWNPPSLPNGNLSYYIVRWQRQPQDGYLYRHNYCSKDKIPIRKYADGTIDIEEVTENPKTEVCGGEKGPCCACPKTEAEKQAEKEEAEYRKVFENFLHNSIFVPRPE
Sequence of Insulin-like growth factor 1 receptor (Homo sapiens) (P08069 741-1367 limits assumed): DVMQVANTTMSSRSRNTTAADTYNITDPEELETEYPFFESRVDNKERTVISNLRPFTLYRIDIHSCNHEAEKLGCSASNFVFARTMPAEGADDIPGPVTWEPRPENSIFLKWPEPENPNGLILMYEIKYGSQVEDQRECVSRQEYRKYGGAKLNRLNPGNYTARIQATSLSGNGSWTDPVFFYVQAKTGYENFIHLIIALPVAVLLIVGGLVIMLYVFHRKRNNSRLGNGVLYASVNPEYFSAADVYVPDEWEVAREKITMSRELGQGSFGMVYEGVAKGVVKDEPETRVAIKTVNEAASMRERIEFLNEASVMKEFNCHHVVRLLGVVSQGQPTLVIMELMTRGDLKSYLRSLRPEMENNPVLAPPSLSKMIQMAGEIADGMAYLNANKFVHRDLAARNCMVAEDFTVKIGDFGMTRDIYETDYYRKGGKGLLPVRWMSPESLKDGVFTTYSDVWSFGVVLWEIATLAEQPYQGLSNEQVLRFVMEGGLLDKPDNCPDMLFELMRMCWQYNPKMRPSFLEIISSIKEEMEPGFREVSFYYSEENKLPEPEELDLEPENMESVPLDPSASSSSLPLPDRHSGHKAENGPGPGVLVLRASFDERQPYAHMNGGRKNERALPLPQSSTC

[14] = target: T2, Serine/threonine-protein kinase D1 (Homo sapiens) (UniProt Q15139); assay: PKCmu (h) Upstate kinase activity assay; conditions: Compound concentration 10.0 uM
T2 sequence (whole entry): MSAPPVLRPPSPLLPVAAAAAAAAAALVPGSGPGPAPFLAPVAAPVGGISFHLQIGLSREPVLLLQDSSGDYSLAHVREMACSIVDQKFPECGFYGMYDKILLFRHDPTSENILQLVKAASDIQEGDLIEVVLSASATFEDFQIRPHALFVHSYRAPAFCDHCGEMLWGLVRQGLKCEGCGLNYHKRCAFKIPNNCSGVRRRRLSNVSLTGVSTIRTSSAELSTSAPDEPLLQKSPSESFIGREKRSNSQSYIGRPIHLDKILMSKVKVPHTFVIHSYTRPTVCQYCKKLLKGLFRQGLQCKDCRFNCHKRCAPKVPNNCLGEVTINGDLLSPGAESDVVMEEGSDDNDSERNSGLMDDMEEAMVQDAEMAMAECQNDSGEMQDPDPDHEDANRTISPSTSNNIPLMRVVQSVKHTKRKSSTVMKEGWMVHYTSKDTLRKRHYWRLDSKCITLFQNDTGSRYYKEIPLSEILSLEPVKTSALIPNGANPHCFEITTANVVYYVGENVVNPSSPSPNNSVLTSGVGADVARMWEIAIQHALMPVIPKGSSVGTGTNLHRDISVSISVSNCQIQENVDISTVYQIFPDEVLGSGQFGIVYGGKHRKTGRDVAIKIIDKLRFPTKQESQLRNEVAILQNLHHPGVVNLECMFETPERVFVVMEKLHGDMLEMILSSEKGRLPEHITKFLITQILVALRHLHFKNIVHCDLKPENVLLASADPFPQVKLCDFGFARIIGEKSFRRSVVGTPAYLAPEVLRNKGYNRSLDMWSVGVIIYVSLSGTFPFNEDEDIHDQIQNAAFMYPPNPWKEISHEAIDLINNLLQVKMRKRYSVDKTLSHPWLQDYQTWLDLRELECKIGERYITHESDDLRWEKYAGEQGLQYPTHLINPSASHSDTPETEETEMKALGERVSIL

DLD-1 = assay: Colon DLD-1 cell line MDS Pharma Services Proliferation Assay; assay type: functional, cell-based, Homo sapiens
[15] = target: Protein kinase C alpha type (Homo sapiens) (UniProt P17252); assay: PKCalpha (h) Upstate kinase activity assay; conditions: Compound concentration 10.0 uM
T47D = assay: Breast T-47D cell line MDS Pharma Services Proliferation Assay; assay type: functional, cell-based, Homo sapiens
[16] = target: Phosphatidylinositol 4,5-bisphosphate 3-kinase catalytic subunit alpha isoform (Homo sapiens) (UniProt P42336); assay: PIK3 (h) Upstate kinase activity assay; conditions: Compound concentration 10.0 uM
[17] = target: Cyclin-dependent kinase 2/cyclin A (Homo sapiens) (UniProt P24941+P20248+P78396); assay: CDK2/ cyclin A (h) Upstate kinase activity assay; assay type: protein-complex assay; conditions: Compound concentration 10.0 uM
[18] = target: Tyrosine-protein kinase Fyn (Homo sapiens) (UniProt P06241); assay: Fyn (h) Upstate kinase activity assay; conditions: Compound concentration 10.0 uM

Cn1cc(Cl)c2c(Oc3c(F)cc(Nc4cc(Cl)nc(N)n4)cc3F)ccnc21 [BAY-4900]
residual activity [1]: 88% | residual activity [2]: 73% | residual activity [3]: 88% | inhibition [4]: -1.36%

Cc1c[nH]c2nccc(Oc3c(F)cc(Nc4cc(Cl)nc(N)n4)cc3F)c12 [BAY-549]
inhibition [5]: 87% | inhibition [6]: 76% | IC50 (PC-3; Homo sapiens, PC-3): 9.4 µM | TGI (PC-3; Homo sapiens, PC-3): > 100 µM | CC50 (PC-3; Homo sapiens, PC-3, read-out: LC50 (the source's name)): > 100 µM | Mean % growth (n = 2) for 10.0 µM probe concentration (PC-3; ± SEM 1 % growth): 48% | Mean % growth (n = 2) for 0.01 µM probe concentration (PC-3; ± SEM 2 % growth): 97% | Mean % growth (n = 2) for 1.0 µM probe concentration (PC-3; ± SEM 3 % growth): 58% | Mean % growth (n = 2) for 100.0 µM probe concentration (PC-3; ± SEM 3 % growth): 29% | Mean % growth (n = 2) for 0.1 µM probe concentration (PC-3; ± SEM 5 % growth): 102% | inhibition [7]: 21% | IC50 (K562; Homo sapiens, K562): 8.3 µM | TGI (K562; Homo sapiens, K562): > 100 µM | CC50 (K562; Homo sapiens, K562, read-out: LC50 (the source's name)): > 100 µM | Mean % growth (n = 2) for 10.0 µM probe concentration (K562; ± SEM 3 % growth): 42% | Mean % growth (n = 2) for 1.0 µM probe concentration (K562; ± SEM 4 % growth): 69% | Mean % growth (n = 2) for 0.1 µM probe concentration (K562; ± SEM 5 % growth): 92% | Mean % growth (n = 2) for 100.0 µM probe concentration (K562; ± SEM 6 % growth): 32% | Mean % growth (n = 2) for 0.01 µM probe concentration (K562; ± SEM 7 % growth): 95% | inhibition [8]: 7% | inhibition [9]: 1% | inhibition [10]: 20% | inhibition [11]: 4% | inhibition [12]: 85% | inhibition [13]: 41% | inhibition [14]: 60% | Mean % growth (n = 2) for 0.01 µM probe concentration (DLD-1): 101% | IC50 (DLD-1; Homo sapiens, DLD-1): 2.4 µM | TGI (DLD-1; Homo sapiens, DLD-1): > 100 µM | CC50 (DLD-1; Homo sapiens, DLD-1, read-out: LC50 (the source's name)): > 100 µM | Mean % growth (n = 2) for 10.0 µM probe concentration (DLD-1; ± SEM 1 % growth): 24% | Mean % growth (n = 2) for 100.0 µM probe concentration (DLD-1; ± SEM 1 % growth): 5% | Mean % growth (n = 2) for 0.1 µM probe concentration (DLD-1; ± SEM 2 % growth): 94% | Mean % growth (n = 2) for 1.0 µM probe concentration (DLD-1; ± SEM 4 % growth): 66% | inhibition [15]: 6% | IC50 (T47D; Homo sapiens, T47D): 2.9 µM | TGI (T47D; Homo sapiens, T47D): 15 µM | CC50 (T47D; Homo sapiens, T47D, read-out: LC50 (the source's name)): 75 µM | Mean % growth (n = 2) for 1.0 µM probe concentration (T47D; ± SEM 1 % growth): 86% | Mean % growth (n = 2) for 100.0 µM probe concentration (T47D; ± SEM 2 % growth): -45% | Mean % growth (n = 2) for 10.0 µM probe concentration (T47D; ± SEM 4 % growth): -2% | Mean % growth (n = 2) for 0.01 µM probe concentration (T47D; ± SEM 6 % growth): 106% | Mean % growth (n = 2) for 0.1 µM probe concentration (T47D; ± SEM 8 % growth): 97% | inhibition [16]: -3% | inhibition [17]: 20% | inhibition [18]: 14%
